# Experimental data: patent publication US20110294843A1, “ADMINISTRATION SCHEME OF POLAR OPIOID METABOLITES FOR POST-OPERATIVE PAIN MANAGEMENT” (PAION UK Limited, priority 2008, published 2011)
# Read-outs that look alike come from different tables or passages of the source.
# Experiments:
# [1] = Pharmacokinetics of M6G at single and multiple intravenous doses in healthy volunteers; type: in vivo, human; settings: for MRT inf / Vd / half-life / clearance / AUC(0-inf) / Cmax: both sexes, human, plasma, iv; for MRT inf: read-out: MRT0-∞; for Vd: read-out: Vss; for half-life: read-out: t½ (converted); for AUC(0-inf): read-out: AUC0-∞; for Cmax: read-out: Cmax; for CLss / MRT24-∞: multiple dose, Dose 5-15 mg
# Method: Healthy male and female subjects were divided into two groups (A and B) with 12 in each. Group A received three single intravenous infusions of M6G over 5 mins at levels of 15, 30 and 45 mg/70 kg in random order, having taken 50 mg of naloxone orally 24 hrs beforehand. There was a seven-day wash-out period between each dose. Blood samples were taken pre-dose and at the following time-points: 3, 5, 15, 30 mins and 1, 2, 3, 4, 6, 12 and 24 hrs after the start of the infusion. Group, B received five, 15 mg/70 kg, intravenous infusions of M6G, each over five minutes, at 6-hourly intervals, having taken a 50 mg oral dose of naloxone 24 hrs before the first infusion. Blood samples were taken before each of the 5 doses, and at 3, 5, 15, 30 mins and at 1, 2, 3 and 4 hrs after the initiation of the 1st and 5th infusions and at 6 hrs after the 5th dose. Vital signs (supine blood pressure, pulse, respiratory rate and oral temperature), respiration rate, pulse oximetry and adverse events were monitored during the study. Plasma levels of M6G were measured using HPLC/ms/ms.
# [2] = prior experimental human and clinical studies; cited from earlier work
# [3] = 15 mg/70 kg, single 5 min iv infusion 15 mg, Geometric Mean
# [4] = 15 mg/70 kg, single 5 min iv infusion 15 mg, Mean
# [5] = 15 mg/70 kg, single 5 min iv infusion 15 mg, Median
# [6] = 30 mg/70 kg, single 5 min iv infusion 30 mg, Geometric Mean
# [7] = 30 mg/70 kg, single 5 min iv infusion 30 mg, Mean
# [8] = 30 mg/70 kg, single 5 min iv infusion 30 mg, Median
# [9] = 45 mg/70 kg, single 5 min iv infusion 45 mg, Geometric Mean
# [10] = 45 mg/70 kg, single 5 min iv infusion 45 mg, Mean
# [11] = 45 mg/70 kg, single 5 min iv infusion 45 mg, Median
compound,measurement,setting,value
"CN1CC[C@]23c4c5ccc(O)c4O[C@H]2[C@@H](OC2OC(C(=O)O)C(O)C(O)C2O)C=CC3[C@H]1C5 (stereo partly drawn) [M6G, (5α,6α)-7,8-Didehydro-4,5-epoxy-3-hydroxy-17-methylmorphinan-β-yl-β-D-glucopyranosiduronic acid]",MRT inf,[1]; [3],1.64 h
same,Vd,[1]; [3],12.9 L
same,half-life,[1]; [3],1.46 h
same,clearance,[1]; [4],133 mL/min
same,AUC(0-inf),[1]; [4],1930 ng·h/mL
same,Cmax,[1]; [4],1860 ng/mL
same,MRT inf,[1]; [4],1.65 h
same,Vd,[1]; [4],13 L
same,half-life,[1]; [4],1.48 h
same,clearance,[1]; [5],133 mL/min
same,AUC(0-inf),[1]; [5],1880 ng·h/mL
same,Cmax,[1]; [5],1650 ng/mL
same,MRT inf,[1]; [5],1.69 h
same,Vd,[1]; [5],12.6 L
same,half-life,[1]; [5],1.56 h
same,clearance,[1]; [6],121 mL/min
same,AUC(0-inf),[1]; [6],4140 ng·h/mL
same,Cmax,[1]; [6],3870 ng/mL
same,MRT inf,[1]; [6],1.76 h
same,Vd,[1]; [6],12.7 L
same,half-life,[1]; [6],1.7 h
same,clearance,[1]; [7],122 mL/min
same,AUC(0-inf),[1]; [7],4190 ng·h/mL
same,Cmax,[1]; [7],3980 ng/mL
same,MRT inf,[1]; [7],1.77 h
same,Vd,[1]; [7],12.8 L
same,half-life,[1]; [7],1.72 h
same,clearance,[1]; [8],125 mL/min
same,AUC(0-inf),[1]; [8],4000 ng·h/mL
same,Cmax,[1]; [8],4110 ng/mL
same,MRT inf,[1]; [8],1.81 h
same,Vd,[1]; [8],12.2 L
same,half-life,[1]; [8],1.81 h
same,clearance,[1]; [9],128 mL/min
same,AUC(0-inf),[1]; [9],5850 ng·h/mL
same,Cmax,[1]; [9],5720 ng/mL
same,MRT inf,[1]; [9],1.66 h
same,Vd,[1]; [9],12.8 L
same,half-life,[1]; [9],1.62 h
same,clearance,[1]; [10],130 mL/min
same,AUC(0-inf),[1]; [10],5910 ng·h/mL
same,Cmax,[1]; [10],5860 ng/mL
same,MRT inf,[1]; [10],1.68 h
same,Vd,[1]; [10],12.9 L
same,half-life,[1]; [10],1.64 h
same,clearance,[1]; [11],136 mL/min
same,AUC(0-inf),[1]; [11],5500 ng·h/mL
same,Cmax,[1]; [11],5860 ng/mL
same,MRT inf,[1]; [11],1.78 h
same,Vd,[1]; [11],13.1 L
same,half-life,[1]; [11],1.69 h
same,"accumulation, AUC0-∞",[1]; five 15 mg iv infusions at 6 hour intervals,2.9%
same,safety,"[1]; healthy volunteers, single and multiple iv doses",No clinically significant safety issues
same,CLss,[1]; Geometric Mean,7261 mL/h
same,MRT24-∞,[1]; Geometric Mean,1.63 h
same,CLss,[1]; Mean,7303 mL/h
same,MRT24-∞,[1]; Mean,1.65 h
same,CLss,[1]; Median,7173 mL/h
same,MRT24-∞,[1]; Median,1.64 h
same,potency ratio morphine and M6G,[2],3 to 1
